Measured values published in US20250000855A1, “USE OF APOMORPHINE AS THERAPEUTIC AGENT FOR NECROPTOSIS-RELATED DISEASES” (INDUSTRY-ACADEMIC COOPERATION FOUNDATION, YONSEI UNIVERSITY, priority 2021, published 2025).

Assays:
MLKL phosphorylation = test: Western blotting for MLKL phosphorylation in TBZ+APO-treated cells; format: cell-based, human; conditions: TBZ+APO-treated THP-1 cells, FIG. 1B
Method: Cells were pretreated with Z-VAD (invivoGen, tlrl-vad) and a compound for 1 hour, and necroptosis was induced with TNF-α (ATGen, TNF0501) and BV6 (Biovision, B1332-5) for the indicated time. The prepared cells were appropriately treated according to analysis (Z-VAD: carbobenzoxy-valyl-alanyl-aspartyl, TNF-α: tumor necrosis factor-α, BV6: 4,4′-(1,6-hexanediyl)bis[N-methyl-L-alanyl-(2S)-2-cyclohexylglycyl-L-prolyl-β-phenyl-L-phenylalaninamide)
Cells were treated with a drug candidate and then collected using centrifugation at 4° C. and 1,500×g for 5 minutes. A supernatant was centrifuged again at 4° C. and 1,500×g for 5 minutes to remove remaining debris, concentrated at 4° C. and 14,000×g for 30 minutes using Amicon ultra-0.5 centrifugal filter unit 10K (Millipore, UFC501096), and stored. The collected cells were lysed using 1× radioimmunoprecipitation assay (RIPA) buffer (GenDEPOT, R4100-010) containing a 1× protease inhibitor (GenDEPOT, P3100-001) and a phosphatase inhibitor (Thermo Fisher Scientific, 1862495). Subsequently, the cell lysate was centrifuged at 4° C. and 20,000×g for 30 minutes to remove debris. The extracted protein concentration was measured using a bicinchoninic acid (BCA) protein assay kit (Thermo Fisher Scientific, 23225). […]

DSS-induced colitis = DSS-induced colitis mouse model; format: in vivo, C57BL/6 mice
Method: An animal experiment was performed on 6 to 8-week-old male C57BL/6 mice in accordance with the procedures approved by the Animal Care and Use Committee of the Yonsei Laboratory Animal Research Center (YLARC, 2018-0024) at Yonsei University. The mice were housed in polypropylene cages with a maximum of four mice per cage under constant temperature and humidity, and the light/dark cycle was 12 hours/12 hours. All mice were given an acclimation period of at least 7 days before participation.
For colitis induced by dextran sulfate sodium (DSS, 36-50 kDa, MP Biomedicals), the mice were administered 2.5% DSS in drinking water for 7 days. The mice were randomly divided into 8 groups as follows. • 1) Control • 2) Apomorphine-treated group (=APO; STK088477, Vitas-M, 1.5 mg/kg, daily intraperitoneal injection) • 3) APO-treated group (15 mg/kg, daily intraperitoneal injection) 4) DSS-treated group • 5) DSS and necrostatine-1-treated group (NEC-1; Biovision, 1864-5, 1.5 mg/kg, daily intraperitoneal injection) • 6) DSS and APO-treated group (0.15 mg/kg, daily intraperitoneal injection) • 7) DSS and APO-treated group (1.5 mg/kg, daily intraperitoneal injection) • 8) DSS and APO-treated group (15 mg/kg, daily intraperitoneal injection)
The body weights and disease activity index (DAI) scores of the mice were recorded daily. DAI was calculated by adding scores of body weight loss (0 point=none, 1 point=1%-5% weight loss, 2 points=5%-10% weight loss, 3 points=10%-15% weight loss, 4 points=15% or more weight loss), stool consistency/diarrhea (0 point=normal, 2 points=loose stools, 4 points=watery diarrhea), and bleeding (0 point=no bleeding, 2 points=slight bleeding, 4 points=total bleeding). At the end of the experiment, the mice were sacrificed, the colon was removed, and then changes in colon length were confirmed, and a weight loss was measured.
At the end of the experiment, the mice were sacrificed, and the colon was removed (without the cecum). The removed colon was washed with cold phosphate-buffered saline (PBS; Welgene, LB001-02) before the measurement of its length. The measured colon was prepared for further analysis by cutting intestinal segments along the mesenteric line and washing with PBS. Then, the intestinal segments were placed in a petri dish and fixed with modified Bouin's fixative (50% ethanol/5% acetic acid in dH2O). The lumen side was maintained upward by holding the proximal end with forceps in one hand and a toothpick in the other. Then, the flat open end of the colon was pulled with the forceps and the proximal end was wrapped around the toothpick. The entire large intestine was wrapped, placed in a cassette, and immersed in 4% paraformaldehyde (Biosesang, PC2031-100-00) at 4° C. overnight.
After the experiment, colon tissues collected from the sacrificed mice were fixed in 4% paraformaldehyde overnight. Swiss-rolled and fixed colon specimens were embedded in paraffin. The specimens were cut into 5-μm sections, and then the sections were stained with hematoxylin and eosin (H & E). The histological evaluation of colitis lesions along the entire length was performed with reference to a scoring system of the degree of crypt structure damage (0˜3), the degree of inflammatory cell infiltration (0˜3), and submucosal edema (0˜3).
5-μm cut paraffin sections were blocked with 5% BSA-supplemented TBS-T, and then the sections and primary antibodies were co-incubated at 4° C. overnight. Secondary antibodies were added and incubated for 1 hour. […]

differences due to treatment with APO alone (without DSS) (DSS-induced colitis; mice without DSS, APO 1.5 or 15 mg/kg daily intraperitoneal injection): no differences
SMILES: CN1CCc2cccc3c2[C@H]1Cc1ccc(O)c(O)c1-3 [APO, apomorphine]
MLKL phosphorylation (MLKL phosphorylation): did not inhibit
characteristic symptoms of colitis observed by H&E staining and PAS staining (DSS-induced colitis; DSS mice, APO 0.15, 1.5, and 15 mg/kg daily intraperitoneal injection, FIG. 7A): alleviated in a concentration-dependent manner
HI score (DSS-induced colitis; DSS mice, APO daily intraperitoneal injection, FIG. 7A): reduce
degree of colon shortening (DSS-induced colitis; DSS mice, APO daily intraperitoneal injection, FIG. 7B): reduce
DAI score (DSS-induced colitis; DSS mice, APO daily intraperitoneal injection, FIG. 7C): reduce
